Reference: patent US10654838B2, “Aminopyridine compounds useful as inhibitors of protein prenylation” (INSTITUT NATIONAL DE LA SANTE ET DE LA RECHERCHE MEDICALE …, priority 2014, dated 2020)

How the values were obtained:
HGPS MSCs [1] = assay: Live cell imaging (cell density); type: cell-based, human; details: 7 days
Method: HGPS MSCs were seeded at 2500 cells per well in 96-well plates and cultivated during 7 days in presence of the drugs. Cell density was monitored using an IncuCyte ZOOM microscope (Essen Bioscience). Each value corresponds to the mean of cell densities of four pictures taken in three independent wells.

HDJ2 = assay: Western blot analysis of HDJ2 farnesylation; type: cell-based, human
FT = target: T1, FT (Homo sapiens, UniProt P49354+P49356); assay: FT activity assay (Farnesyltransferase [3H] SPA); type: biochemical; details: concentration inducing 50% of the maximum inhibiting effect of the compound
T1 construct: Reactions were started by adding 40 μL of treated or untreated cell lysate; endogenous in cells; host or cells: HGPS MSCs (cell lysate)
Method: (§1) Cell pellet of HGPS MSCs were resuspended in 25 mM Tris-HCl pH 7.4, 1 mM DTT, 1 mM MgCl2, 1 EDTA, 1 mM PMSF and centrifuged at 10,000×g for 10 min at 4° C. Protein content was determined using Lowry's method. Aliquots of cell lysate containing 100 μg of total proteins were incubated with tested substances at 37° C. for 30 min.
FT activity was determined by Famesyltransferase [3H] SPA enzyme assay (Amersham Life Science, Buckinghamshire, England). Briefly, FT activity was assayed in 20 μl of assay buffer containing 50 mmol/L Hepes, 30 mmol/L MgCl2, 20 mmol/L KCl and 5 mmol/L dithiothreitol, 20 μl of [3H]-FPP (12 pmol) and 20 μl of biotin lamin B. Reactions were started by adding 40 μL of treated or untreated cell lysate and incubated for 1 hour at 37° C. Reactions were stopped by the addition of 150 μL of stop reagent containing SPA bead and counted in a scintillation counter. FT activity was expressed as pmoles of incorporated [3H]-FPP into biotin lamin-B peptide per minute per milligram of total proteins (pmol/min/mg prot). Parallel samples were assayed to evaluate the total and the nonspecific radioactivity. In all experiments enzyme assays were carried out in triplicate.

HGPS MSCs [2] = assay: Nuclear shape abnormalities (lamin A/C immunostaining); type: cell-based, human; details: 48 h, lamin A/C staining
Method: In the 4-steps protocol, cells were fixed in 4% paraformaldehyde (15 minutes, room temperature) before permeabilization and blocking in PBS supplemented with 0.1% triton X-100 and 1% BSA (Sigma-Aldrich, St. Louis, USA). Primary antibodies were incubated one hour at room temperature in blocking buffer. Antibodies included mouse anti-lamins A/C (clone JOL2, Millipore, Billerica, USA), rabbit anti-prelamin A (ANTOO45, Diatheva) and anti-Ki67 (clone Ki-S5, MAB4190, Millipore, Billerica, USA). Cells were stained with the species-specific fluorophore-conjugated secondary antibody (Invitrogen) (one hour, room temperature) and nuclei were visualized with Hoechst 33342.

FPPS [3] = target: T2, FPPS (Homo sapiens, UniProt P14324); assay: Surface plasmon resonance on immobilized FPPS; type: binding
T2 sequence (P14324 1-419): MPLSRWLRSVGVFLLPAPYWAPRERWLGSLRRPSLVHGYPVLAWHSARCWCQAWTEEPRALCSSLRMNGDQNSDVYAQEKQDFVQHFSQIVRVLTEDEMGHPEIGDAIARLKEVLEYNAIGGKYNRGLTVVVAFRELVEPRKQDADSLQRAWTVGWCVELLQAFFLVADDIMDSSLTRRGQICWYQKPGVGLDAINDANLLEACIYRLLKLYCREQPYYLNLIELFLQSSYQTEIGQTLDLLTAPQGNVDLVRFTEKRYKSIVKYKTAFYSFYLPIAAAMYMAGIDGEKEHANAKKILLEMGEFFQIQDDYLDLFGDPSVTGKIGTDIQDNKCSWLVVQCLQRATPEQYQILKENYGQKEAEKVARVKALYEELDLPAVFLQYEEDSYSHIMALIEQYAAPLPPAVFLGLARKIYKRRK
Method: Surface plasmon resonance (SPR) was measured using a BIAcore 3000 instrument at 25° C. FPPS (2800 RU) was immobilized on flow cells of a CM5-chip. The running buffer was HBSEP pH 7.4 (20 mM Hepes, 150 mM NaCl, and 0.005% P20). Regeneration was performed with 10 mM glycine, pH 3.0. […] Data were evaluated using Scrubber2 (Biologic software) and BIAeval software (BIAcore).

FPPS [4] = target: T2, FPPS; assay: FPPS activity assay; type: biochemical; design: endogenous in cells; host or cells: HGPS MSCs (cell lysate); details: concentration inducing 50% of the maximum inhibiting effect of the compound
Method: as §1
FPPS assay was carried out with some modifications of the procedure of Krisans et al. (Krisans et al., 1994, The Journal of biological chemistry VOL. 269: 14165-14169) and described by Gupta et al. (Gupta et al., 1999, Eur J Med Chem, VOL. 43: 2751-2767). Briefly, FPPS was assayed in 150 μL containing 25 mmol/L Hepes, pH=7, 2 mmol/L MgCl2, 1 mmol/L dithiothreitol, 5 mmol/L KF, 1% A noctyl-β-glucopyranoside, 3.3 μmol/L [4-14C] IPP (18 Ci/mmol), 3 μmol/L unlabeled IPP and 20 μmol/L geranyl diphosphate. Reactions were started by adding 40 μL of treated or untreated cell lysate and incubated for 45 min at 37° C. Reactions were stopped by the addition of 150 μL 2.5 mol/L HCl in 80% ethanol containing 100 μg/mL farnesol as a carrier. The samples were hydrolyzed for 30 min at 37° C. to convert the FPP to farnesol and neutralized by the addition of 150 μL of 10% NaOH. The reaction product (farnesol) was extracted into 1 mL of N-hexane and an aliquot (200 μL) of the organic phase was used for radioactivity counting. Parallel samples were assayed to evaluate the total and the nonspecific radioactivity. In all experiments, enzyme assays were carried out in triplicate.

HMGCR = target: T3, HMGCR (Homo sapiens, UniProt P04035); assay: HMGCR colorimetric activity assay; type: biochemical
T3 construct: oxidation of NADPH by the catalytic subunit of HMGCR in the presence of the substrate HMG CoA; purchased Sigma-Aldrich
T3 sequence (P04035 340-888 limits assumed): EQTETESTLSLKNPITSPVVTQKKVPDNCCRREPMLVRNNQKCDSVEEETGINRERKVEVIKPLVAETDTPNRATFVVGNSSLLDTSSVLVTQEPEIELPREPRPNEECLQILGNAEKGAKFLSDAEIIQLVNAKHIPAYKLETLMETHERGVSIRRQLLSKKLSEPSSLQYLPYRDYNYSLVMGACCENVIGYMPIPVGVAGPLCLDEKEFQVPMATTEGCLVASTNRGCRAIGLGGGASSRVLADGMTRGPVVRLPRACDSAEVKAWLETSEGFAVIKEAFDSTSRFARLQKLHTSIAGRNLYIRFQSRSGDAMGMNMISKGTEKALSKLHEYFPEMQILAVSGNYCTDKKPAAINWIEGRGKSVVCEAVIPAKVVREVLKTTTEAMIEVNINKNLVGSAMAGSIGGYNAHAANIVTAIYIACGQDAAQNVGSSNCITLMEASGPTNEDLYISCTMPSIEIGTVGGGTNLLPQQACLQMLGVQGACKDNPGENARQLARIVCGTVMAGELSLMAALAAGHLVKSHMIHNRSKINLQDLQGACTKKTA
Method: HMGCR activity was measured using GCoA Reductase Assay Kit (Sigma-Aldrich) according to the manufacturer's protocol. The assay is based on the spectrophotometric measurement of the decrease in absorbance at 340 nm, which represents the oxidation of NADPH by the catalytic subunit of HMGCR in the presence of the substrate HMG CoA.

prelamin A = assay: Western immunoblotting of prelamin A; type: cell-based, human; details: HGPS MSCs, optimal concentration
Method: Whole-cell lysates of MSC were collected, separated by SDS-PAGE, and transferred onto PVPF membrane by liquid transfer method. Blots were blocked in 10% skim milk (Bio-Rad) in tween 0.1% tris-buffered saline (TTBS) 1× one hour at room temperature. The primary antibodies used were a mouse anti-lamins A/C 1:200 (Millipore, JOL2), a rabbit anti-prelamin A 1/100 (ANTOO45, Diatheva) and a β-actin 1/200000 (Sigma). Membranes were incubated during the night at 4° C. Antigen-antibody binding was detected using horseradish peroxidaseconjugated species-specific secondary antibodies (GE-Healthcare, Little Chalfont, UK) followed by enhanced chemiluminescence Western blotting detection reagents (Perkin-Elmer, Waltham, USA).

SMILES	cytostatic effect in long term live imaging cultures (HGPS MSCs [1])	unfarnesylated form of HDJ2 (HDJ2)	IC50 (FT)	rescue of nuclear shape abnormalities (HGPS MSCs [2])	direct interaction with FPPS (SPR), in words (FPPS [3])	Ka (1/M), association constant (FPPS [3]; SPR, BIAcore 3000, 25° C.)	Kd (FPPS [3]; SPR, BIAcore 3000, 25° C., read-out: Kd (M), equilibrium dissociation constant)	IC50 (FPPS [4])	IC50 (μM) HMGCR (HMGCR)	prelamin A level (Western blot) (prelamin A)
N#CC(c1ccncc1)c1cc(N2CCN(C(=O)c3cccs3)CC2)ncn1 (stereo not shown) [Mono-AP2, Pyridin-4-yl-{6-[4-(thiophene-2-carbonyl)-piperazin-1-yl]-pyrimidin-4-yl}-acetonitrile]	less cytostatic than the FTI tipifarnib	increase of the unfarnesylated form of the protein	9.32 µM	restoring HGPS MSCs nuclear shape defects at levels not significantly different from the FTI tipifarnib	confirmed the direct interactions	5040 M⁻¹	0.0002 M	1.82 µM	No inhibition	increased
N#CC(c1ccccn1)c1ccnc(N2CCC(O)(Cc3ccccc3)CC2)n1 (stereo not shown) [Mono-AP3, [2-(4-Benzyl-4-hydroxy-piperidin-1-yl)-pyrimidin-4-yl]-pyridin-2-yl-acetonitrile]	less cytostatic than the FTI tipifarnib	increase of the unfarnesylated form of the protein	0.35 µM	restoring HGPS MSCs nuclear shape defects at levels not significantly different from the FTI tipifarnib	–	–	–	5.54 µM	No inhibition	–
